Target: T1, USP25 (USP25-His6, Boston Biochem E-546) (Homo sapiens, UniProt Q9UHP3)
T1 construct: His6; purchased Boston Biochem E-546
T1 sequence (Q9UHP3 1-1055): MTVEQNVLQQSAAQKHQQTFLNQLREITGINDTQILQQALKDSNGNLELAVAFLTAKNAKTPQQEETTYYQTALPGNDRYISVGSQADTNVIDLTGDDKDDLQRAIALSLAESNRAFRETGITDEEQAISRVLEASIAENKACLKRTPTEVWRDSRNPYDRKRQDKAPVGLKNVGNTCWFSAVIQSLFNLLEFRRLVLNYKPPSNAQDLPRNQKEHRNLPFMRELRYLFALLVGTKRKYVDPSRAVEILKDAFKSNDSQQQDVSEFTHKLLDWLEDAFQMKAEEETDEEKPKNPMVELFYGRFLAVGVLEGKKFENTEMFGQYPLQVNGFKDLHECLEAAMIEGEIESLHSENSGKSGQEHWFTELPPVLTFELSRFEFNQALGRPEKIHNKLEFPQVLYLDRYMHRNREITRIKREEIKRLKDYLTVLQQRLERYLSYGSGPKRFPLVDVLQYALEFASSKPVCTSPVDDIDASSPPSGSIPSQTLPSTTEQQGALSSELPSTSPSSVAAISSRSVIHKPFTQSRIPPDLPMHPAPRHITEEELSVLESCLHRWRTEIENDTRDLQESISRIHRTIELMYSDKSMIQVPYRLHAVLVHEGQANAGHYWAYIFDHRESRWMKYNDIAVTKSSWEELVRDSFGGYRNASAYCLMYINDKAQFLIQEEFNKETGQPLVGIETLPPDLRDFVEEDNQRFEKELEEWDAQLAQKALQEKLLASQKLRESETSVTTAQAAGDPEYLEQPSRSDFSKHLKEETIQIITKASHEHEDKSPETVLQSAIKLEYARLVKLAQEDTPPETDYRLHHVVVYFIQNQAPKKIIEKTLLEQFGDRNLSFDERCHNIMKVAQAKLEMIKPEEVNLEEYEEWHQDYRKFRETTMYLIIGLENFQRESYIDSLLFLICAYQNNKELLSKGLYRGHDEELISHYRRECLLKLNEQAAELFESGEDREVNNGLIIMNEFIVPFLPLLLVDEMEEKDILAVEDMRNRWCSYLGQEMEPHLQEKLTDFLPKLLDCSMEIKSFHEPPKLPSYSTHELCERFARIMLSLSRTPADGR
Experiment: Ubiquitin-Rhodamine 110 Assay for USP25 Activity, Example A-2
Format: biochemical
Details: Ubiquitin-Rhodamine 110 assay, Example A-2; read-out: USP25 A-2 IC50 range
Summary of the method: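 Fluorescence (ex 485, em 535 nm) of cleaved ubiquitin-rhodamine 110 (25 nM, below Km) gave IC50 via 4-parameter logistic fit. Reaction: 45 min, room temperature, citric acid stop, after 30 min compound preincubation with 75 pM USP25-His6 in 20 mM Tris pH 8.0, 3 mM BME, 0.03% BGG, 0.01% Triton X-100; top dose 25 μM.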

`C[C@H](Nc1ccc(C(=O)N[C@H]2COc3cc(N4CCNCC4)ccc3C2)cn1)c1ccccc1` [Example 53, 6-(((S)-1-phenylethyl)amino)-N-((R)-7-(piperazin-1-yl)chroman-3-yl)nicotinamide] and `C[C@@H](Nc1ccc(C(=O)N[C@H]2COc3cc(N4CCNCC4)ccc3C2)cn1)c1ccccc1` [Example 54, 6-(((R)-1-phenylethyl)amino)-N-((R)-7-(piperazin-1-yl)chroman-3-yl)nicotinamide] cannot be ordered by IC50: greater than 2000 nM for the first, greater than 2000 nM for the second.

`O=C(N[C@H]1COc2cc(N3CCNCC3)ccc2C1)c1cnc2c(c1)CC[C@@H]2O` [Example 58, (S)-7-hydroxy-N-((R )-7-(piperazin-1-yl)chroman-3-yl)-6,7-dihydro-5H-cyclopenta[b]pyridine-3-carboxamide] and `O=C(N[C@H]1COc2cc(N3CC4CCC(C3)N4)ccc2C1)c1cnc2c(c1)CCCO2` [Example 51, N-((3R)-7-(3,8-diazabicyclo[3.2.1]octan-3-yl)chroman-3-yl)-3,4-dihydro-2H-pyrano[2,3-b]pyridine-6-carboxamide] cannot be ordered by IC50: greater than 2000 nM for the first, greater than 2000 nM for the second.

`Cc1ccc2c(N)c(C(=O)N[C@H]3CCc4nc(N5CCNCC5)ccc4C3)sc2n1` (single isomer, unassigned) [Example 23-7] and `Cc1ccc2c(N)c(C(=O)N[C@H]3CCc4nc(N5CCN[C@H](C)C5)ccc4C3)sc2n1` (single isomer, unassigned) [Example 23-16] fall in the same range of IC50: 200 to 2000 nM for the first, 200 to 2000 nM for the second.

First: Cc1ccc2c(N)c(C(=O)N[C@H]3COc4cc(N5C[C@H]6CNC[C@@H]6C5)ccc4C3)sc2n1 [Example 43, 3-amino-N-((R)-7-((3aR,6aR)-hexahydropyrrolo[3,4-c]pyrrol-2(1H)-yl)chroman-3-yl)-6-methylthieno[2,3-b]pyridine-2-carboxamide]
Second: Cc1ccc2c(N)c(C(=O)N[C@H]3COc4cc([C@@H]5CCNC[C@@H]5O)ccc4C3)sc2n1 [Example 63, 3-amino-N-((R)-7-((3R,4S)-3-hydroxypiperidin-4-yl)chroman-3-yl)-6-methylthieno[2,3-b]pyridine-2-carboxamide]
The IC50 of the first is higher: greater than 2000 nM for the first, 50 to 200 nM for the second.

First: Cc1ccc2c(N)c(C(=O)N[C@H]3COc4cc([C@@H]5CCNC[C@@H]5F)ccc4C3)sc2n1 [Example 83, 3-amino-N-((R)-7-((3R,4S)-3-fluoropiperidin-4-yl)chroman-3-yl)-6-methylthieno[2,3-b]pyridine-2-carboxamide]
Second: Cc1ccc2c(N)c(C(=O)N[C@H]3COc4cc([C@@H]5CCNCC5(F)F)ccc4C3)sc2n1 [Example 70, 3-amino-N-((R)-7-((S)-3,3-difluoropiperidin-4-yl)chroman-3-yl)-6-methylthieno[2,3-b]pyridine-2-carboxamide]
The IC50 of the first is higher: 50 to 200 nM for the first, 1 to 50 nM for the second.

`Cc1ccc2c(N)c(C(=O)N[C@H]3COc4cc(N5CC6CNCC(C5)O6)c(F)c(F)c4C3)sc2n1` [Example 79, N-((3R)-7-(9-oxa-3,7-diazabicyclo[3.3.1]nonan-3-yl)-5,6-difluorochroman-3-yl)-3-amino-6-methylthieno[2,3-b]pyridine-2-carboxamide] and `Cc1ccc2c(N)c(C(=O)N[C@H]3COc4c(F)c(N5CC6CNCC(C5)O6)cc(F)c4C3)sc2n1` [Example 78, N-((3R)-7-(9-oxa-3,7-diazabicyclo[3.3.1]nonan-3-yl)-5,8-difluorochroman-3-yl)-3-amino-6-methylthieno[2,3-b]pyridine-2-carboxamide] fall in the same range of IC50: 1 to 50 nM for the first, 1 to 50 nM for the second.

`Cc1ccc2c(N)c(C(=O)N[C@H]3COc4cc(N5C[C@H]6CC[C@@H]5CN6)ncc4C3)sc2n1` [Example 76, N-((R)-7-((1 R,4R)-2,5-diazabicyclo[2.2.2]octan-2-yl)-3,4-dihydro-2H-pyrano[3,2-c]pyridin-3-yl)-3-amino-6-methylthieno[2,3-b]pyridine-2-carboxamide] and `Cc1ccc2c(N)c(C(=O)N[C@H]3COc4cc([C@H]5CCNCC5(F)F)ccc4C3)sc2n1` [Example 69, 3-amino-N-((R)-7-((R)-3,3-difluoropiperidin-4-yl)chroman-3-yl)-6-methylthieno[2,3-b]pyridine-2-carboxamide] fall in the same range of IC50: 50 to 200 nM for the first, 50 to 200 nM for the second.

`O=C(N[C@H]1COc2cc(N3CC4CCC(C3)N4)ccc2C1)c1cnc2c(c1)CCCN2` [Example 50, N-((3R)-7-(3,8-diazabicyclo[3.2.1]octan-3-yl)chroman-3-yl)-5,6,7,8-tetrahydro-1,8-naphthyridine-3-carboxamide] and `C[C@@H]1CCc2cc(C(=O)N[C@H]3COc4cc(N5CC6CCC(C5)N6)ccc4C3)cnc2N1` [Example 74, (7R)-N-((3R)-7-(3,8-diazabicyclo[3.2.1]octan-3-yl)chroman-3-yl)-7-methyl-5,6,7,8-tetrahydro-1,8-naphthyridine-3-carboxamide] fall in the same range of IC50: 200 to 2000 nM for the first, 200 to 2000 nM for the second.

`Cc1ccc2c(N)c(C(=O)N[C@H]3CCc4nc(N5CC6CCC(C5)N6)cc(F)c4C3)sc2n1` [Example 23-18, N-((6S)-2-(3,8-diazabicyclo[3.2.1]octan-3-yl)-4-fluoro-5,6,7,8-tetrahydroquinolin-6-yl)-3-amino-6-methylthieno[2,3-b]pyridine-2-carboxamide] and `Cc1ccc2c(N)c(C(=O)N[C@H]3CCc4nc(N5CC6CC(C5)N6)ccc4C3)sc2n1` [Example 23-10, 3-amino-N-[(6S)-2-{3,6-diazabicyclo[3.1.1]heptan-3-yl}-5,6,7,8-tetrahydroquinolin-6-yl]-6-methylthieno[2,3-b]pyridine-2-carboxamide] fall in the same range of IC50: 200 to 2000 nM for the first, 200 to 2000 nM for the second.

`CO[C@H]1CN(c2cc(F)c3c(c2F)OC[C@H](NC(=O)c2sc4nc(C)ccc4c2N)C3)C[C@@H]1N` [Example 87, 3-amino-N-((R)-7-((3S,4S)-3-amino-4-methoxypyrrolidin-1-yl)-5,8-difluorochroman-3-yl)-6-methylthieno[2,3-b]pyridine-2-carboxamide] and `CO[C@@H]1CN(c2ccc3c(c2F)OC[C@H](NC(=O)c2sc4nc(C)ccc4c2N)C3)C[C@H]1N` [Example 91, 3-amino-N-[(3R )-7-[(3R,4R)-3-amino-4-methoxypyrrolidin-1-yl]-8-fluoro-3,4-dihydro-2H-1-benzopyran-3-yl]-6-methylthieno[2,3-b]pyridine-2-carboxamide] fall in the same range of IC50: 200 to 2000 nM for the first, 200 to 2000 nM for the second.

`Cc1ccc2c(N)c(C(=O)N[C@H]3CCc4nc(N5CCN[C@@H](C)C5)ccc4C3)sc2n1` (single isomer, unassigned) [Example 23-15] and `Cc1ccc2c(N)c(C(=O)N[C@H]3CCc4nc(N5C[C@@H](N)[C@H](C(F)F)C5)ccc4C3)sc2n1` [Example 25, 3-Amino-N-[(6S)-2-[(3S,4R)-3-amino-4-(difluoromethyl)pyrrolidin-1-yl]-5,6,7,8-tetrahydroquinolin-6-yl]-6-methylthieno[2,3-b]pyridine-2-carboxamide] fall in the same range of IC50: 200 to 2000 nM for the first, 200 to 2000 nM for the second.

`Cc1nc2sc(C(=O)N[C@H]3COc4c(F)c(N5CCNCC5)cc(F)c4C3)c(N)c2s1` [Example 56, (R)-6-amino-N-(5,8-difluoro-7-(piperazin-1-yl)chroman-3-yl)-2-methylthieno[2,3-d]thiazole-5-carboxamide] and `Cc1cnc2c(N)c(C(=O)N[C@H]3COc4c(C#N)c(N5CCNCC5)cc(F)c4C3)sc2n1` [Example 60, (R)-7-amino-N-(8-cyano-5-fluoro-7-(piperazin-1-yl)chroman-3-yl)-3-methylthieno[2,3-b]pyrazine-6-carboxamide] fall in the same range of IC50: 200 to 2000 nM for the first, 200 to 2000 nM for the second.

`Cc1ccc2c(N)c(C(=O)N[C@H]3CCc4nc(N5CCNCC5)c(F)cc4C3)sc2n1` (single isomer, unassigned) [Example 30-1] and `Cc1cc(C)c2c(N)c(C(=O)N[C@H]3CCc4nc(N5CCNCC5)ccc4C3)sc2n1` [Example 23-14, 3-amino-4,6-dimethyl-N-[(6S)-2-(piperazin-1-yl)-5,6,7,8-tetrahydroquinolin-6-yl]thieno[2,3-b]pyridine-2-carboxamide] fall in the same range of IC50: 200 to 2000 nM for the first, 200 to 2000 nM for the second.

First: CCc1cnc2sc(C(=O)N[C@H]3COc4cc(N5CCNCC5)ccc4C3)c(N)c2n1 [Example 36, (R)-7-amino-2-ethyl-N-(7-(piperazin-1-yl)chroman-3-yl)thieno[2,3-b]pyrazine-6-carboxamide]
Second: Cc1nc2sc(C(=O)N[C@H]3CCc4nc(N5CCNCC5)ccc4C3)c(N)c2s1 [Example 23-9]
The IC50 of the first is lower: 200 to 2000 nM for the first, greater than 2000 nM for the second. The first is the more potent here.

From patent publication US11524966B1 (Valo Early Discovery, Inc., priority 2017, dated 2022)
